From patent US10604523B2, “1-aryl-4-methyl-[1,2,4]triazolo[4,3-a]quinoxaline derivatives” (Janssen Pharmaceutica NV, priority 2011, dated 2020)
Where two headings read alike, the source gives them in different places.

Assays:
[1] = biological target: T1, Rat recombinant PDE10A (rPDE10A2) (Rattus norvegicus, UniProt Q9QYJ6); experiment: In vitro assay PDE10A (SPA, 3H-cAMP); assay type: biochemical; settings: for IC50: read-out: PIC50 PDE10 (converted)
T1 construct: made in house; host or cells: Sf9 insect cells (baculovirus)
T1 sequence (Q9QYJ6 1-794): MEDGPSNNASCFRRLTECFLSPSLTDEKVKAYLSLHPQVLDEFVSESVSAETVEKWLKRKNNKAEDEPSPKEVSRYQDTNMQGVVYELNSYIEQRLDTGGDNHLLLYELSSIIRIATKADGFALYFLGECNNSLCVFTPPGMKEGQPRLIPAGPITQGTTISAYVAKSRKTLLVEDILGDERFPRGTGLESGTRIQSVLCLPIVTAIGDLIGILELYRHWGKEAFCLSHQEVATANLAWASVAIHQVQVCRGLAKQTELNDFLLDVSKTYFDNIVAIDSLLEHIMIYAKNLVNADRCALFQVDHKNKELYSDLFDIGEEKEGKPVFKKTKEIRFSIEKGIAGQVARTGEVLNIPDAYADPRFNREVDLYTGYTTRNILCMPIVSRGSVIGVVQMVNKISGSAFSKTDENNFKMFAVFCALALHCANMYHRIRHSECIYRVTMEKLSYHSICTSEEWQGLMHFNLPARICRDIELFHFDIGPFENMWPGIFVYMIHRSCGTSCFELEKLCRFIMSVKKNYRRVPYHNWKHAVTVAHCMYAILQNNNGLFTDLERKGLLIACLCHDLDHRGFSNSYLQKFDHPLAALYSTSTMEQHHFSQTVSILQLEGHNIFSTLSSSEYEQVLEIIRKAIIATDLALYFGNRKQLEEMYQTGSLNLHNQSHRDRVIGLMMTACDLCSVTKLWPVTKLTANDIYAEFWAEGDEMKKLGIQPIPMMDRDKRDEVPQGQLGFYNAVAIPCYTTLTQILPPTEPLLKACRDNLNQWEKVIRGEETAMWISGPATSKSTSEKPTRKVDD

[2] = test system: Apomorphine-induced agitation; experiment: Reversal of Apomorphine-induced Agitation in Rats (APO); assay type: in vivo, rat; settings: for SC Dose at max effect / SC Max effect (cumulative agitation score over 60 min) / SC LAD (lowest active dose): subcutaneous route; for SC Max effect (cumulative agitation score over 60 min) / PO Max effect (cumulative agitation score over 60 min): apomorphine 1.0 mg/kg i.v.; for SC LAD (lowest active dose) / PO LAD (lowest active dose): lowest dose at which ≥67% tested animals respond
Method: Apomorphine (1.0 mg/kg, i.v.)-induced agitation was scored every 5 min over the first hour after injection of apomorphine. The score system was: (3) pronounced, (2) moderate, (1) slight, and (0) absent. […] For the present purpose, the cumulative agitation score over the whole 60-min observation period was used as a measure to describe the maximum effect (Max effect).

[3] = -log IC50 expressed in mol/L, rPDE10A2, 60 nM cAMP

CCCCOc1cc(-c2nnc3c(C)nc4ccc(CN5CCOCC5)cc4n23)cnc1Cl [Compound B-202]
IC50 [1, 3]: > 10000 nM

CCCCOc1ccc(F)c(-c2nnc3c(C)nc4cc(Br)ccc4n23)c1 [Compound B-175]
IC50 [1]: > 10000 nM

Cc1nc2ccc(CN(C)C)cc2n2c(-c3ccccc3Cl)nnc12 [Compound B-107]
IC50 [1]: 107 nM
SC Dose at max effect [2]: 10 mg/kg
SC Max effect (cumulative agitation score over 60 min) [2]: 20.5
SC LAD (lowest active dose) [2]: > 10 mg/kg

CCNCc1ccc2nc(C)c3nnc(-c4ccccc4Cl)n3c2c1 [Compound B-20, N-{[1-(2-Chlorophenyl)-4-methyl[1,2,4]triazolo[4,3-a]quinoxalin-8-yl]methyl}-ethanamine]
SC Dose at max effect [2]: 10 mg/kg
SC Max effect (cumulative agitation score over 60 min) [2]: 21
SC LAD (lowest active dose) [2]: > 10 mg/kg

Cc1nc2ccc(CN3CCOCC3)cc2n2c(-c3cncc(OCC4CC4)c3)nnc12 [Compound B-193]
PIC50 PDE10 [1, 3]: 5.44

Cc1nc2ccc(CN3CCC(O)C3)cc2n2c(-c3ccccc3Cl)nnc12 (centres unmarked) [Compound B-57]
IC50 [1]: 18.2 nM
SC Dose at max effect [2]: 10 mg/kg
SC Max effect (cumulative agitation score over 60 min) [2]: 22
SC LAD (lowest active dose) [2]: > 10 mg/kg

COCCOc1cncc(-c2nnc3c(C)nc4ccc(CN5CCOCC5)cc4n23)c1 [Compound B-203]
PIC50 PDE10 [1, 3]: 5.11

CCOc1ccc(Cl)c(-c2nnc3c(C)nc4ccc(CN5CCOCC5)cc4n23)c1 [Compound B-70]
PIC50 PDE10 [1, 3]: 6.58
SC Dose at max effect [2]: 10 mg/kg
SC Max effect (cumulative agitation score over 60 min) [2]: 24
SC LAD (lowest active dose) [2]: > 10 mg/kg

CCCOc1cncc(-c2nnc3c(C)nc4ccc(CNCC)cc4n23)c1 [Compound B-178]
IC50 [1]: > 10000 nM

CCNC(=O)c1ccc2nc(C)c3nnc(-c4cnccc4C)n3c2c1 [Compound B-109]
IC50 [1]: 851 nM

CCCCOc1cncc(-c2nnc3c(C)nc4ccc(CNC)cc4n23)c1 [Compound B-200]
IC50 [1]: > 10000 nM

Cc1nc2ccc(C(=O)NCCN3CCOCC3)cc2n2c(-c3ccccc3Cl)nnc12 [Compound B-36]
IC50 [1]: 11.2 nM
SC Dose at max effect [2]: 10 mg/kg
SC Max effect (cumulative agitation score over 60 min) [2]: 21
SC LAD (lowest active dose) [2]: > 10 mg/kg

CCOC(=O)c1ccc2nc(C)c3nnc(-c4ccccc4)n3c2c1 [Compound B-2a, Ethyl 4-methyl-1-phenyl[1,2,4]triazolo[4,3-a]quinoxaline-8-carboxylate]
IC50 [1, 3]: 295 nM

CCNC(=O)c1ccc2nc(C)c3nnc(-c4ccccc4Cl)n3c2c1 [Compound B-10, 1-(2-Chlorophenyl)-N-ethyl-4-methyl[1,2,4]triazolo[4,3-a]quinoxaline-8-carboxamide]
IC50 [1, 3]: 21.4 nM
PO Dose at Max Effect [2]: 2.5 mg/kg
PO Max effect (cumulative agitation score over 60 min) [2]: 21
PO LAD (lowest active dose) [2]: > 2.5 mg/kg

Cc1nc2ccc(CN3CCOCC3)cc2n2c(-c3c(F)cccc3Cl)nnc12 [Compound B-23, 1-(2-Chloro-6-fluorophenyl)-4-methyl-8-(morpholin-4-ylmethyl)[1,2,4]triazolo[4,3-a]quinoxaline]
SC Dose at max effect [2]: 40 mg/kg
SC Max effect (cumulative agitation score over 60 min) [2]: 1
SC LAD (lowest active dose) [2]: 0.63 mg/kg

CCNC(=O)c1ccc2nc(C)c3nnc(-c4cncc(OC)c4)n3c2c1 [Compound B-80]
IC50 [1]: 741 nM

CCCCOc1ccc(Cl)c(-c2nnc3c(C)nc4ccc(CNCC)cc4n23)c1 [Compound B-101]
IC50 [1]: 5500 nM

Cc1nc2ccc(C(=O)NCc3ccccc3)cc2n2c(-c3ccccc3)nnc12 [Compound B-9, N-Benzyl-4-methyl-1-phenyl[1,2,4]triazolo[4,3-a]quinoxaline-8-carboxamide]
IC50 [1]: 41.7 nM
PO Dose at Max Effect [2]: 2.5 mg/kg
PO Max effect (cumulative agitation score over 60 min) [2]: 22
PO LAD (lowest active dose) [2]: > 2.5 mg/kg

Cc1nc2ccc(CN3CCCC(O)C3)cc2n2c(-c3ccccc3Cl)nnc12 (centres unmarked) [Compound B-62]
IC50 [1]: 19.5 nM
SC Dose at max effect [2]: 10 mg/kg
SC Max effect (cumulative agitation score over 60 min) [2]: 21
SC LAD (lowest active dose) [2]: > 10 mg/kg

Cc1nc2ccc(CN(C)C)cc2n2c(-c3cncc(OCC4CC4)c3)nnc12 [Compound B-205]
IC50 [1]: > 10000 nM

Cc1nc2ccc(CN3CCOCC3)cc2n2c(-c3cc(OC(C)C)ccc3Cl)nnc12 [Compound B-58]
PIC50 PDE10 [1, 3]: 5.73

Cc1nc2ccc(CN3CCOCC3)cc2n2c(-c3ccccc3Cl)nnc12 [Compound B-19, 1-(2-Chlorophenyl)-4-methyl-8-(morpholin-4-ylmethyl)[1,2,4]triazolo[4,3-a]-quinoxaline]
SC Dose at max effect [2]: 5 mg/kg
SC Max effect (cumulative agitation score over 60 min) [2]: 14
SC LAD (lowest active dose) [2]: 5 mg/kg

COc1cncc(-c2nnc3c(C)nc4ccc(CN5CCOCC5)cc4n23)c1 [Compound B-91]
PIC50 PDE10 [1, 3]: 6.57
SC Dose at max effect [2]: 10 mg/kg
SC Max effect (cumulative agitation score over 60 min) [2]: 21
SC LAD (lowest active dose) [2]: > 10 mg/kg

CCN(CC)CCNC(=O)c1ccc2nc(C)c3nnc(-c4ccccc4Cl)n3c2c1 [Compound B-41]
IC50 [1]: 44.7 nM
SC Dose at max effect [2]: 10 mg/kg
SC Max effect (cumulative agitation score over 60 min) [2]: 22
SC LAD (lowest active dose) [2]: > 10 mg/kg

CCCCOc1ccc(F)c(-c2nnc3c(C)nc4cc(C#N)ccc4n23)c1 [Compound B-176]
IC50 [1]: > 10000 nM

CCCOc1ccc(Cl)c(-c2nnc3c(C)nc4ccc(CN(C)C)cc4n23)c1 [Compound B-112]
IC50 [1]: 1480 nM

CCCCOc1cncc(-c2nnc3c(C)nc4ccc(CNCC)cc4n23)c1 [Compound B-150]
IC50 [1]: > 10000 nM

Cc1nc2ccc(CNCc3ccccc3)cc2n2c(-c3ccccc3Cl)nnc12 [Compound B-99]
PIC50 PDE10 [1, 3]: 7.3

CCNC(=O)c1ccc2nc(C)c3nnc(-c4ccccc4)n3c2c1 [Compound B-65]
IC50 [1]: 251 nM
PO Dose at Max Effect [2]: 10 mg/kg
PO Max effect (cumulative agitation score over 60 min) [2]: 21
PO LAD (lowest active dose) [2]: > 10 mg/kg

CCCOc1ccc(Cl)c(-c2nnc3c(C)nc4ccc(CN5CCOCC5)cc4n23)c1 [Compound B-72]
PIC50 PDE10 [1, 3]: 6.49
SC Dose at max effect [2]: 10 mg/kg
SC Max effect (cumulative agitation score over 60 min) [2]: 23
SC LAD (lowest active dose) [2]: > 10 mg/kg

CCCCOc1cncc(-c2nnc3c(C)nc4ccc(CN5CCOCC5)cc4n23)c1.Cl [Compound B-17a, 1-(5-Butoxypyridin-3-yl)-4-methyl-8-(morpholin-4-ylmethyl) [1,2,4]triazolo[4,3-a]quinoxaline hydrochloride]
SC Dose at max effect [2]: 40 mg/kg
SC Max effect (cumulative agitation score over 60 min) [2]: 23
SC LAD (lowest active dose) [2]: > 40 mg/kg

CCCOc1ccc(Cl)c(-c2nnc3c(C)nc4ccc(Br)cc4n23)c1 [Compound B-92]
IC50 [1]: 468 nM

CCNC(=O)c1ccc2nc(C)c3nnc(-c4c(Cl)cccc4Cl)n3c2c1 [Compound B-33]
IC50 [1, 3]: 12.3 nM

CCCCOc1ccc(F)c(-c2nnc3c(C)nc4ccc(Br)cc4n23)c1 [Compound B-95]
IC50 [1]: 1740 nM

CCNCc1ccc2nc(C)c3nnc(-c4cncc(OCC5CC5)c4)n3c2c1 [Compound B-211]
IC50 [1, 3]: > 10000 nM

CCCCOc1cncc(-c2nnc3c(C)nc4ccc(CNC(C)C)cc4n23)c1 [Compound B-153]
IC50 [1, 3]: > 10000 nM

CCCOc1ccc(Cl)c(-c2nnc3c(C)nc4ccc(CNCC)cc4n23)c1 [Compound B-111]
IC50 [1]: 1780 nM

CCOC(=O)c1ccc2c(c1)nc(C)c1nnc(-c3ccccc3)n12 [Compound B-2b, Ethyl 4-methyl-1-phenyl[1,2,4]triazolo[4,3-a]quinoxaline-7-carboxylate]
PIC50 PDE10 [1, 3]: 5.57

CCCOc1cncc(-c2nnc3c(C)nc4ccc(CN5CCOCC5)cc4n23)c1 [Compound B-119]
PIC50 PDE10 [1, 3]: 5.21

CCCCOc1ccc(Cl)c(-c2nnc3c(C)nc4ccc(CNC)cc4n23)c1 [Compound B-192]
PIC50 PDE10 [1, 3]: 5.04

CCNCc1ccc2nc(C)c3nnc(-c4cc(OCC)ccc4Cl)n3c2c1 [Compound B-151a]
PIC50 PDE10 [1, 3]: 6.04

Cc1nc2ccc(CNC(C)C)cc2n2c(-c3cncc(OCC4CC4)c3)nnc12 [Compound B-210]
IC50 [1]: 1450 nM

CCNC(=O)c1ccc2nc(C)c3nnc(-c4cccnc4)n3c2c1 [Compound B-127]
IC50 [1, 3]: 1820 nM

CCCCOc1ccc(F)c(-c2nnc3c(C)nc4ccc(C#N)cc4n23)c1 [Compound B-120]
IC50 [1]: 3550 nM

CCCCOc1ccc(Cl)c(-c2nnc3c(C)nc4ccc(CNC(C)C)cc4n23)c1 [Compound B-149]
PIC50 PDE10 [1, 3]: 5.38

Cc1nc2ccc(CN(C)C)cc2n2c(-c3cc(OC(C)C)ccc3Cl)nnc12 [Compound B-141]
PIC50 PDE10 [1, 3]: 5.8

CCNC(=O)c1ccc2nc(C)c3nnc(-c4cccnc4)n3c2c1 [Compound B-143]
IC50 [1, 3]: 1350 nM

CCNCc1ccc2nc(C)c3nnc(-c4cc(OC(C)C)ccc4Cl)n3c2c1 [Compound B-148]
PIC50 PDE10 [1, 3]: 5.07
